Key:
[1] = test system: insomnia patients; test: Phase 2 trial, measurements of sleep maintenance versus placebo; format: in vivo, human
Source text: The data from the APD125 Phase 2 study are consistent with Phase 1 data and support further development of APD125 for the treatment of insomnia patients who have difficulty maintaining sleep.

[2] = test system: healthy adults; test: Phase 1 trials, waking EEG; format: in vivo, human
[3] = test system: normal volunteers; test: Afternoon nap model of insomnia in normal volunteers; format: in vivo, human
Source text: APD125, a potent and selective 5-HT2A serotonin receptor inverse agonist is a member of the genus disclosed in the European Patent EP1558582. […] Sleep onset latency was not decreased by APD125. In the afternoon nap model, APD125 decreased microarousals, the number of sleep stage shifts, and number of awakenings after sleep onset.

[4] = test system: diabetic rats; conditions: cited from earlier work
[5] = test system: DOCA-salt induced hypertension; conditions: rats; cited from earlier work
[6] = test system: glaucoma patients; conditions: cited from earlier work
[7] = test system: heatstroke; conditions: in vivo; cited from earlier work
[8] = test system: spontaneously hypertensive rats; conditions: cited from earlier work
[9] = biological target: 5-HT2A (Homo sapiens, UniProt P28223); conditions: cited from earlier work
Chain of 5-HT2A (P28223 whole entry, species assumed): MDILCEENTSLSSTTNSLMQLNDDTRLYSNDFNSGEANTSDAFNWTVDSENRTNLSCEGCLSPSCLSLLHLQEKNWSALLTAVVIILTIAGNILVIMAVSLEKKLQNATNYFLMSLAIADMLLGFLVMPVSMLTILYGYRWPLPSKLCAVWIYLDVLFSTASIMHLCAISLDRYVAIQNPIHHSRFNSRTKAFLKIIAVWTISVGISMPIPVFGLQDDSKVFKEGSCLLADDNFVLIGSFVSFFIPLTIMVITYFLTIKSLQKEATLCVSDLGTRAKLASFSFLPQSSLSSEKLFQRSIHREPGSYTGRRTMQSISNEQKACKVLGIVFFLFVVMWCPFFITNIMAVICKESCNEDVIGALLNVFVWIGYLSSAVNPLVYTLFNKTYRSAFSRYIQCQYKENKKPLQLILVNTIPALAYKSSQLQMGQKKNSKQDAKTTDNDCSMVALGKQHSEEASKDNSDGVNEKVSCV

[10] = test system: JC virus; conditions: cited from earlier work
[11] = test system: lumbar disc herniation; conditions: humans; cited from earlier work
[12] = test system: inflammatory pain; conditions: rats, intrathecal or intraperitoneal administration; cited from earlier work
[13] = test system: diabetic nephropathy; conditions: 24 months of treatment; cited from earlier work
[14] = test system: thermal induced pain; conditions: rats, intraperitoneal administration; cited from earlier work

With `COc1ccc(NC(=O)Nc2ccc(F)cc2F)cc1-c1c(Br)cnn1C` [APD125] the “next day cognitive effects” value ([1]; Phase 2) was “without any limiting next day cognitive effects”, the “measurements of sleep maintenance” value ([1]; Phase 2, compared to placebo) was “statistically significant improvements” and the “dose of maximal vigilance-lowering effects on waking EEG” value [2] was 40 to 80 mg. The “effects on waking EEG” value [2] was “vigilance-lowering effects on waking EEG”, the “time of peak effects after dosing” value ([2]; after dosing) was 2 to 4 h and the REM sleep ([3]; afternoon nap model) was “at the expense of REM sleep”. The microarousals ([3]; afternoon nap model) was “decreased”, the “number of awakenings after sleep onset” value ([3]; afternoon nap model) was “decreased” and the “number of sleep stage shifts” value ([3]; afternoon nap model) was “decreased”. For the same molecule, the sleep onset latency ([3]; afternoon nap model) was “not decreased” and the “slow wave sleep and associated parameters” value ([3]; primarily during the early part of sleep) was “increased slow wave sleep and associated parameters in a dose-dependent manner”.
For `O=CN1CCC(C(=O)NCCN2CCC(=C3c4ccccc4C=Cc4ccccc43)CC2)CC1` [AT-1015], the “14.9% reduction in saphenous sensory conduction velocity” value (“14.9% reduction” for short) [4] is listed as “completely reversed” and the “44.7% reduction in sciatic endoneurial blood flow” value (from here on “44.7% reduction”) [4] is listed as “completely reversed”.
In the case of `CN1CCN2c3ccccc3Cc3ccccc3C2C1` (stereo not drawn) [Mainserin], the DOCA-salt induced hypertension [5] is listed as “prevent”.
For `O=C(c1ccc(F)cc1)C1CCN(CCn2c(=O)[nH]c3ccccc3c2=O)CC1` [ketanserin], the IOP [6] is given as “significantly lower”, the protection during heatstroke [7] is given as “protect against circulatory shocks, intracranial hypertension, and cerebral ischemia” and the blood pressure [8] is given as “stabilize blood pressure”. The “inverse agonist activity at 5-HT2A” value [9] was “have inverse agonist activity” and the “JC virus infection of human glial cells” value [10] was “inhibited”.
For `Cc1nc2sccn2c(=O)c1CCN1CCC(=C(c2ccc(F)cc2)c2ccc(F)cc2)CC1` [ritanserin], the “14.9% reduction” value [4] is given as “completely reversed”, the “44.7% reduction” value [4] is given as “completely reversed” and the “inverse agonist activity at 5-HT2A” value [9] is given as “have inverse agonist activity”. The “JC virus infection of human glial cells” value [10] was “inhibited”.
For `COc1cccc(CCc2ccccc2OCC(CN(C)C)OC(=O)CCC(=O)O)c1` (stereo not drawn) [sarpogrelate], the IOP [6] is given as “significantly lower”, the “lower back pain, leg pain and numbness associated with sciatica” value [11] is given as “effective treatment” and the “14.9% reduction” value [4] is given as “completely reversed”. For the same molecule, the “44.7% reduction” value [4] was “completely reversed”, the “analgesic effect on inflammatory pain” value [12] was “significant analgesic effect” and the “urinary albumin excretion level” value [13] was “significantly reduced”. The “analgesic effect on thermal induced pain” value [14] was “significant analgesic effect”.

Reference: patent US10787437B2, “Processes for the preparation of pyrazole derivatives useful as modulators of the 5-HT2A serotonin receptor” (Arena Pharmaceuticals, Inc., priority 2008, dated 2020)
